Data taken from the supplement of paper PMC9663587.

Legend:
[1] = compound: CC(=O)c1c(C)c2cnc(Nc3ccc(N4CCNCC4)cn3)nc2n(C2CCCC2)c1=O; assay: increase in dead-cell fraction, 72 h; higher = more death;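 also: breast cancer cell lines in 384-well plates, stained with Hoechst plus LIVE/DEAD far red dye and imaged, cells above an LDR intensity threshold counted dead, Hoechst-negative corpses included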
[2] = compound: CCN1CCN(Cc2ccc(Nc3ncc(F)c(-c4cc(F)c5nc(C)n(C(C)C)c5c4)n3)nc2)CC1; assay: as above
[3] = compound: CN(C)C(=O)c1cc2cnc(Nc3ccc(N4CCNCC4)cn3)nc2n1C1CCCC1 [LEE011/Ribociclib]; assay: as above
[4] = compound: CN1CC[C@H](c2c(O)cc(O)c3c(=O)cc(-c4ccccc4Cl)oc23)[C@H](O)C1 [Flavopiridol]; assay: as above
[5] = compound: CC(=O)c1c(C)c2cnc(Nc3ccc(N4CCN(CCOCCOCCOCCNC(=O)COc5cccc6c5C(=O)N(C5CCC(=O)NC5=O)C6=O)CC4)cn3)nc2n(C2CCCC2)c1=O [BSJ-03-123]; assay: GR value, 72 h; higher = faster growth (1 = untreated, <0 = killing);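 also: breast cancer and non-malignant breast epithelial lines, nine half-log doses, viable cells counted by Hoechst and LIVE/DEAD dye imaging versus time-zero plates and DMSO controls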
[6] = compound: CC(=O)c1c(C)c2cnc(Nc3ccc(N4CCNCC4)cn3)nc2n(C2CCCC2)c1=O; assay: as above

AU565
increase in dead-cell fraction ([1]; 0.0003162 µM): -0.0036 | increase in dead-cell fraction ([1]; 0.001 µM): -0.0011 | increase in dead-cell fraction ([1]; 0.003162 µM): 0.0019 | increase in dead-cell fraction ([1]; 0.01 µM): -0.0007 | increase in dead-cell fraction ([1]; 0.03162 µM): 0.008 | increase in dead-cell fraction ([1]; 0.1 µM): 0.0139 | increase in dead-cell fraction ([1]; 0.3162 µM): 0.0209 | increase in dead-cell fraction ([1]; 1 µM): 0.0255 | increase in dead-cell fraction ([1]; 3.162 µM): 0.0446 | increase in dead-cell fraction ([2]; 0.001 µM): 0.0076 | increase in dead-cell fraction ([2]; 0.003162 µM): 0.0065 | increase in dead-cell fraction ([2]; 0.01 µM): 0.0106 | increase in dead-cell fraction ([2]; 0.03162 µM): 0.0354 | increase in dead-cell fraction ([2]; 0.1 µM): 0.043 | increase in dead-cell fraction ([2]; 0.3162 µM): 0.0403 | increase in dead-cell fraction ([2]; 1 µM): 0.0369 | increase in dead-cell fraction ([2]; 3.162 µM): 0.0205 | increase in dead-cell fraction ([2]; 10 µM): 0.085 | increase in dead-cell fraction ([3]; 0.001 µM): -0.0067 | increase in dead-cell fraction ([3]; 0.003162 µM): -0.0027 | increase in dead-cell fraction ([3]; 0.01 µM): 0.0258 | increase in dead-cell fraction ([3]; 0.03162 µM): 0.0105 | increase in dead-cell fraction ([3]; 0.1 µM): 0.0143 | increase in dead-cell fraction ([3]; 0.3162 µM): 0.0331 | increase in dead-cell fraction ([3]; 1 µM): 0.0469 | increase in dead-cell fraction ([3]; 3.162 µM): 0.0463 | increase in dead-cell fraction ([3]; 10 µM): 0.0439 | increase in dead-cell fraction ([4]; 0.0001 µM): -0.0146 | increase in dead-cell fraction ([4]; 0.0003162 µM): -0.004 | increase in dead-cell fraction ([4]; 0.001 µM): 0.0124 | increase in dead-cell fraction ([4]; 0.003162 µM): 0.0024 | increase in dead-cell fraction ([4]; 0.01 µM): -0.0083 | increase in dead-cell fraction ([4]; 0.03162 µM): 0.0121 | increase in dead-cell fraction ([4]; 0.1 µM): 0.0266 | increase in dead-cell fraction ([4]; 0.3162 µM): 0.262 | increase in dead-cell fraction ([4]; 1 µM): 0.602 | GR value ([5]; 0.001 µM): 0.962 GR | GR value ([5]; 0.003162 µM): 0.875 GR | GR value ([5]; 0.01 µM): 0.791 GR | GR value ([5]; 0.03162 µM): 0.759 GR | GR value ([5]; 0.1 µM): 0.833 GR | GR value ([5]; 0.3162 µM): 0.775 GR | GR value ([5]; 1 µM): 0.41 GR | GR value ([5]; 3.162 µM): 0.52 GR | GR value ([5]; 10 µM): -0.386 GR | GR value ([6]; 0.0003162 µM): 1.04 GR | GR value ([6]; 0.001 µM): 1.05 GR | GR value ([6]; 0.003162 µM): 1.01 GR | GR value ([6]; 0.01 µM): 0.919 GR | GR value ([6]; 0.03162 µM): 0.73 GR | GR value ([6]; 0.1 µM): 0.579 GR | GR value ([6]; 0.3162 µM): 0.39 GR | GR value ([6]; 1 µM): 0.301 GR | GR value ([6]; 3.162 µM): 0.154 GR
